Results as given in US11583525B2, “Geranylgeranyltransferase I inhibitor for treatment of a PTEN defective cancer” (H. LEE MOFFITT CANCER CENTER AND RESEARCH INSTITUTE, INC., priority 2017, dated 2023).
“Also recorded” adds a separate entry of the source.

Tested on: A549 cells
Experiment: A549 cell xenografts in NOD/SCID gamma mice, GGTi-2418 alone or in combination with PDT
Type: in vivo
Settings: 50 mg kg-1 intratumoural injection
From the text: FIGS. 4A, 4B, 4C, and 4D show both a non-degradable IP3R3 mutant and GGTi-2418 sensitize tumours to PDT. […] Implanted xenotransplanted mice, chosen randomly, were subjected to two rounds of PDT (see arrows) or left untreated (UT); n=4-6 mice per group. Left panel, tumour growth kinetics at the indicated time points. Middle panel, representative tumours imaged with IRDye 2-DG at the end of the experiment. Top right panel, representative excised tumours imaged 60 days post-injection. Bottom right panel, quantification of tumour weights. P values for the tumour volume and weight at day 60 were calculated by one-way ANOVA and multiple-comparisons test. Error bars indicate s.e.m. […] Middle panel, quantification of apoptosis. […] AFU, arbitrary fluorescence units. P values were calculated by one-way ANOVA and multiple-comparisons test. […] Bottom right panel, quantification of tumour weights. P values for the tumour volume and weight at day 60 were calculated by one-way ANOVA and multiple-comparisons test. […] Middle panel, quantification of apoptosis. […] P values were calculated by one-way ANOVA and multiple-comparisons test. […]
Experimental animals. […] Tumour growth was monitored daily, and tumour diameters were measured with callipers every other day. The tumour volume was calculated using the following equation: volume=π/6 ×(a×b2), where a is the major diameter and b is the minor diameter. […]

Cc1nc[nH]c1CN1CCN(C(=O)N[C@@H](CC(C)C)C(=O)O)[C@@H](Cc2ccccc2)C1=O [GGTi-2418]
growth rate of xenografts (GGTi-2418 by itself, two rounds of five consecutive days): only modestly affected the growth rate of xenografts
sensitization of tumour xenografts to PDT (tumour growth, weight, apoptosis) (GGTi-2418 in combination with PDT): sensitizes xenotransplanted tumours to photodynamic therapy; also recorded: significantly sensitized tumour xenografts to PDT
